Reference: patent US9856225B2, “Substituted phenazines as antimicrobial agents” (University of Florida Research Foundation, Incorporated, priority 2013, dated 2018)
“And” between values parts separate entries of the source, which are not always exact repeats. Equal entries are not always repeated. “Also recorded” adds a separate entry of the source. Where two headings read alike, the source gives them in different places. Marks after values point to notes of the source that are not given here.

Columns and labels:
Assay type in all cases: cell-based
[1] = system: Staphylococcus aureus (ATCC 25923) biofilm; assay: Biofilm inhibition, crystal violet staining; design: MIC/IC50 Biofilm: unit not given here; conditions: for Phenotype: planktonic growth vs biofilm formation; for IC50: Staphylococcus aureus; for MIC/IC50 Biofilm: ratio of MIC to IC50 of biofilm inhibition
Description: Biofilm Inhibition Protocol for S. aureus (ATCC 25923). A serial two-fold dilution of 2× bromophenazine small molecule concentration was made in 100 μL tryptic soy broth (TSB) medium with 0.5% glucose were delivered into 0.1% gelatin (Millipore) coated 96-well tissue culture plates. […] To each well, 100 μL of TSB with 0.5% glucose containing 2×10^6 CFU/mL Staphylococcus aureus cells, prepared from fresh culture (OD600 of 0.8), was added. The plates were incubated at 37° C. for 24 hours. The wells were gently rinsed by submerging the entire plates in a tub of cold, running tap water. The wells were then fixed with 200 μL methanol for 15 minutes. After the plates were air dried, the biofilms were stained with 100 μL of 1% crystal violet for 10 minutes. The plates were again rinsed with running water. After drying in air, quantitative assessment of biofilm formation was obtained by extracting the crystal violet associated with the remaining biofilm with 100 μL per well of the following bleaching solution (methanol:glacial acetic acid:water (v/v/v)=4:1:5). This bleaching solution dissolved the bound crystal violet and produced a violet-colored solution in each well. The intensity of coloration was determined by measuring the absorbance at 540 nm.

[2] = system: Acinetobacter baumannii (ATCC 19606); assay: Planktonic growth (OD600) in biofilm inhibition assay; conditions: for increase in planktonic growth: OD600; for inhibition of growth at 100 µM: Acinetobacter baumannii, ATCC19606, 24 h, read-out: % Growth Inhibition at 100 μM
Description: Each well was inoculated with ˜7×10^6 colony forming units per milliliter (corresponding to an OD600 of 0.01 prepared directly from an overnight culture). A lid was placed on the 96-well plate which was wrapped in suran wrap, placed in a humidifying chamber and incubated under static conditions at 37° C. for 24 hours. Following incubation, the media and planktonic bacteria were then removed from 96-well plates and the wells were then washed with water. The bacterial biofilms within the microtiter wells were stained with 200 μL of an aqueous 0.1% crystal violet solution that was allowed to stand for 10-20 minutes. The crystal violet stain was then removed, the wells were rinsed with water and dried. The crystal violet stain that remained on the inside of the wells (i.e., stained bacterial biofilm) on the inside of the wells was solubilized by the addition of 200 μL ethanol and absorbance was read at OD540 using a spectrophotometer. […] Single data points for all compounds and DMSO controls were tested in two replicate rows in 96-well plates and corresponding absorbance readings were averaged for the quantification of planktonic growth and biofilm formation. Reported percent biofilm inhibition was determined by the comparison of compound treated wells (the average of the two replicate wells) versus vehicle control wells without compound following background subtraction (i.e., an empty, untreated well) and reported from 2 to 4 independent overnight cultures. DMSO was serially diluted at the same concentration as test compounds with a top concentration of 1% v/v.
(§1) The bromophenazines were also evaluated against the Gram-negative bacterium Acinetobacter baumannii in order to identify biofilm modulating small molecules against this emerging pathogen. Acinetobacter baumannii is notorious for its ability to persist as bacterial biofilms on hospital surfaces, giving rise to many multidrug-resistant nosocomial infections. Clinical isolates of A. baumannii have been identified that are resistant to every class of antibiotic clinically used. The bromophenazines were evaluated against Acinetobacter baumannii ATCC 19606 in biofilm inhibition assays. Bromophenazines were allowed to incubate in 96-well plates with Acinetobacter baumannii (˜7×10^6 CFUmL^−1 by adjusting an overnight culture to an OD600˜0.01) for 24 hours at 37° C. using Mueller-Hinton broth followed by spectrophometer readings of each plate to evaluate planktonic growth (OD600) and biofilm formation (OD540 after crystal violet stain of biofilms inside microtiter wells). […] This biofilm inhibition with activation of planktonic growth activity was dose-dependent with bromophenazine 17a (see FIG. 20).

[3] = system: Staphylococcus aureus (ATCC 25923); assay: MIC broth microdilution (CLSI), Luria Broth
Description: (§2) Antibiotic Susceptibility Tests (MIC Assay Protocol). The minimum inhibitory concentration (MIC) for each compound described herein was determined by the broth microdilution method as recommended by the Clinical and Laboratory Standards Institute (CLSI) (Clinical and Laboratory Standards Institute. 2009. Methods for dilution antimicrobial susceptibility tests for bacteria that grow aerobically; approved standard, eighth edition (M7-A8)). In a 96-well plate, eleven two-fold serial dilutions of each compound were made in a final volume of 100 μL Luria Broth (one column served as a blank; see the MIC assay described herein). Each well was inoculated with 10^5 bacterial cells at the initial time of incubation, prepared from a fresh log phase culture (OD600 of 0.5). […] The concentration range tested for each compound during this study was 0.10 to 100 μM. DMSO served as the vehicle and negative control in each microdilution MIC assay. DMSO was serially diluted at the same concentration as the compounds with a top concentration of 1% v/v. Bacterial strains used: Staphylococcus aureus (ATCC 25923), Staphylococcus epidermidis (ATCC 12228) and Pseudomonas aeruginosa (PAO1). Kanamycin was used as a positive control against Staphylococcus aureus and Staphylococcus epidermidis.

[4] = system: Acinetobacter baumannii (ATCC 19606) biofilm; assay: Biofilm inhibition, Mueller-Hinton broth, crystal violet; conditions: for inhibition at 100 µM: Acinetobacter baumannii
Description: Biofilm Inhibition Protocol for A. baumannii (ATCC 19606): In a 96-well plate, ten two-fold serial dilutions of each compound tested were made from the highest concentration tested (100 μM) in a final volume of 100 μL in Mueller-Hinton broth (one column served as a blank). Each well was inoculated with ˜7×10^6 colony forming units per milliliter (corresponding to an OD600 of 0.01 prepared directly from an overnight culture). A lid was placed on the 96-well plate which was wrapped in suran wrap, placed in a humidifying chamber and incubated under static conditions at 37° C. for 24 hours. Following incubation, the media and planktonic bacteria were then removed from 96-well plates and the wells were then washed with water. The bacterial biofilms within the microtiter wells were stained with 200 μL of an aqueous 0.1% crystal violet solution that was allowed to stand for 10-20 minutes. The crystal violet stain was then removed, the wells were rinsed with water and dried. The crystal violet stain that remained on the inside of the wells (i.e., stained bacterial biofilm) on the inside of the wells was solubilized by the addition of 200 μL ethanol and absorbance was read at OD540 using a spectrophotometer. NOTE: The concentration range tested for each compound was 0.2-100 μM. Single data points for all compounds and DMSO controls were tested in two replicate rows in 96-well plates and corresponding absorbance readings were averaged for the quantification of planktonic growth and biofilm formation. Reported percent biofilm inhibition was determined by the comparison of compound treated wells (the average of the two replicate wells) versus vehicle control wells without compound following background subtraction (i.e., an empty, untreated well) and reported from 2 to 4 independent overnight cultures. DMSO was serially diluted at the same concentration as test compounds with a top concentration of 1% v/v.
as §1

[5] = system: Staphylococcus epidermidis (ATCC 12228); assay: MIC broth microdilution (CLSI), Luria Broth; conditions: ATCC12228, Table 1, ATCC 12228, read-out: Staphylococcus epidermidis MIC
Description: as §2

[6] = ATCC25923, S. aureus ATCC 25923, single replicate screen, read-out: Biofilm Inhibition IC50
[7] = A. baumannii ATCC 19606, 100 μM, * = no growth inhibition at 200 μM
[8] = Staphylococcus aureus, ATCC25923, Table 2, S. aureus ATCC 25923, Luria Broth, read-out: MIC
[9] = ATCC19606, A. baumannii ATCC 19606, 100 μM, read-out: % Biofilm Inhibition at 100 μM
[10] = Staphylococcus aureus, ATCC25923, Table 1, ATCC 25923, range tested 0.10 to 100 μM, read-out: Staphylococcus aureus MIC
[11] = Staphylococcus aureus, ATCC25923, Table 1, ATCC 25923, read-out: Staphylococcus aureus MIC

IC50 [1, 6] [µM] | MIC [3, 8] [µM] | MIC/IC50 Biofilm ([1]; S. aureus ATCC 25923) | Structure (SMILES) | Phenotype ([1]; S. aureus ATCC 25923) | inhibition of growth at 100 µM [2, 7] [%] | inhibition at 100 µM [4, 9] [%] | also measured
> 100 | > 100 | – | Cc1cc(C)c(C(=O)Oc2c(Br)cc(Br)c3nc4ccccc4nc23)c(C)c1 [Compound 19a] | inactive | -14 ± 2 | 44 ± 10 | increase in planktonic growth ([2]; 100 μM): ~15%; planktonic growth inhibition at 200 μM [2]: did not inhibit planktonic growth
> 100 | > 100 | – | CS(=O)(=O)Oc1c(Br)cc(Br)c2nc3ccccc3nc12 [Compound 29a] | – | 3 ± 3 | 1 ± 2 | Phenotype ([4]; A. baumannii ATCC 19606): inactive
> 100 | > 100 | – | O=C(Oc1c(Br)cc(Br)c2nc3ccccc3nc12)C1CCCCC1 [Compound 26, 2,4-Dibromophenazin-1-yl cyclohexanecarboxylate] | inactive | -25 ± 5 | 11 ± 1 | MIC [3, 10]: > 100 µM; MIC [3, 11]: > 46.5 µg/mL; Phenotype ([4]; A. baumannii ATCC 19606): inactive
– | – | – | CN(C)C(=O)Oc1c(Br)cc(Br)c2nc3ccccc3nc12 [Compound 25a] | – | – | – | IC50 ([1]; ATCC25923, read-out: Biofilm Inhibition IC50): > 100 µM; inhibition of growth at 100 µM [2]: -3 ± 1%; MIC ([3]; Staphylococcus aureus, ATCC25923): > 100 µM; inhibition at 100 µM ([4]; ATCC19606, read-out: % Biofilm Inhibition at 100 μM): 15 ± 1%
1.3 | – | 9.6 | O=C(Oc1c(Br)cc(Br)c2nc3ccccc3nc12)c1ccc(C(F)(F)F)cc1 [Compound 16a] | antibacterial | -3 ± 2 | 29 ± 11 | –
14.8 | > 100 | >6.8 | O=C(/C=C/c1ccccc1)Oc1c(Br)cc(Br)c2nc3ccccc3nc12 [Compound 9a] | – | -18 ± 4 | 52 ± 5 | increase in planktonic growth ([2]; 100 μM): ~15%; planktonic growth inhibition at 200 μM [2]: did not inhibit planktonic growth
0.95 | > 100 | >105 | COc1ccc(C(=O)Oc2c(Br)cc(Br)c3nc4ccccc4nc23)cc1 [Compound 20a] | – | -6 ± 4 | 17 ± 5 | IC50 ([1]; ATCC25923, S. aureus, three independent experiments, read-out: Biofilm inhibition IC50 (triplicate)): 10.3 µM; Phenotype ([4]; A. baumannii ATCC 19606): inactive
> 100 | > 100 | – | O=C(Oc1c(Br)cc(Br)c2nc3ccccc3nc12)c1ccc2ccccc2c1 [Compound 21a] | inactive | -15 ± 6 | 35 ± 9 | increase in planktonic growth ([2]; 100 μM): ~15%; planktonic growth inhibition at 200 μM [2]: did not inhibit planktonic growth
– | – | – | COc1c(Br)cc(Br)c2nc3ccccc3nc12 [Compound 27, 2,4-Dibromo-1-methoxyphenazine] | – | – | – | MIC [3, 10]: > 100 µM; MIC [3, 11]: > 36.9 µg/mL
> 100 | > 100 | – | O=C(Oc1c(Br)cc(Br)c2nc3ccccc3nc12)c1ccc2c(c1)OCO2 [Compound 22a] | – | -14 ± 5 | 29 ± 4 | –
1.1 | – | 11.4 | O=C(Oc1c(Br)cc(Br)c2nc3ccccc3nc12)c1cc(C(F)(F)F)cc(C(F)(F)F)c1 [Compound 17a] | antibacterial | -15 ± 3 | 60 ± 8 | increase in planktonic growth ([2]; 100 μM): ~15%; planktonic growth inhibition at 200 μM [2]: did not inhibit planktonic growth; planktonic growth while biofilm formation is inhibited (in words) ([2]; Mueller-Hinton broth, FIG. 20): dose-dependent increases in planktonic growth
0.79 | > 100 | >127** | O=C(Oc1c(Br)cc(Br)c2nc3ccccc3nc12)c1cccs1 [Compound 24a] | antibacterial; also recorded: antibacterial** | -10 ± 7 | 32 ± 8 | MIC ([3]; Table 2, S. aureus ATCC 25923, Luria Broth): >100** μM
– | – | – | NC[C@H]1O[C@H](O[C@H]2[C@H](O)[C@@H](O[C@H]3O[C@H](CO)[C@@H](O)[C@H](N)[C@H]3O)[C@H](N)C[C@@H]2N)[C@H](O)[C@@H](O)[C@@H]1O [Kanamycin, reference compound] | – | – | – | MIC [5]: 0.78 µM to 1.56 µM and 0.38 µg/mL to 0.76 µg/mL; MIC [3, 10]: 1.56 to 6.25 µM; MIC [3, 11]: 0.76 to 3.03 µg/mL
2.44 | 1.56 | 0.6 | O=C(Oc1c(Br)cc(Br)c2nc3ccccc3nc12)c1ccc(F)cc1 [Compound 24, 2,4-Dibromophenazin-1-yl 4-fluorobenzoate] | antibacterial | -16 ± 6 | 35 ± 4 | MIC [3, 10]: 1.56 µM; MIC [3, 11]: 0.74 µg/mL

Structure (SMILES) | IC50 [1, 6] [µM] | MIC [3, 8] [µM] | MIC/IC50 Biofilm ([1]; S. aureus ATCC 25923) | Phenotype ([1]; S. aureus ATCC 25923) | inhibition of growth at 100 µM [2, 7] [%] | inhibition at 100 µM [4, 9] [%] | also measured
O=C(Oc1c(Br)cc(Br)c2nc3ccccc3nc12)N(c1ccccc1)c1ccccc1 [Compound 26a] | > 100 | > 100 | – | inactive | -22 ± 8 | 40 ± 2 | –
